In patent US20120245111A1, “FLAVANONES-CONTAINING FOOD COMPOSITIONS” (NESTEC S.A., priority 2009, published 2012):

Experiment: Particle size distribution of hesperidin in water by laser diffraction (Malvern Mastersizer 2000)
Type: physicochemical
Protocol: The particle size distribution is observed using a microscopy optic LEICA DMR (mode Differential Interference Contrast and polarisation). The particle size distribution is measured by laser diffraction using a Malvern Mastersizer 2000.
The hesperidin obtainable by the heat treatment processes of the invention has a smaller size distribution compared to commercially available hesperidin as illustrated in FIG. 3.
For variant 3 (140° C., 60 s) and variant 4 (160° C., 10 s), the cumulative distribution of particle size below 20 microns increases to 99%. Thus, it can be seen that the heat treatment has an influence on the particle size of hesperidin and on the conformation of hesperidin particles. Therefore, sedimentation is avoided.

## COc1ccc([C@@H]2CC(=O)c3c(O)cc(O[C@@H]4O[C@H](CO[C@@H]5O[C@@H](C)[C@H](O)[C@@H](O)[C@H]5O)[C@@H](O)[C@H](O)[C@H]4O)cc3O2)cc1O [commercially available hesperidin, hesperidin]
0.5% hesperidin in water, before or after UHT treatment
  % of cumulative distribution of hesperidin particle below 20 microns: 40%
Commercially available hesperidin extract, crystalline form
  crystal size distribution range: 0.1 to 160 microns
